Test [1] has as its target T1, human serotonin 1A receptors (Homo sapiens, UniProt P08908).
T1 construct: expressed in transfected cells; host or cells: CHO-K1
T1 sequence (P08908 1-422): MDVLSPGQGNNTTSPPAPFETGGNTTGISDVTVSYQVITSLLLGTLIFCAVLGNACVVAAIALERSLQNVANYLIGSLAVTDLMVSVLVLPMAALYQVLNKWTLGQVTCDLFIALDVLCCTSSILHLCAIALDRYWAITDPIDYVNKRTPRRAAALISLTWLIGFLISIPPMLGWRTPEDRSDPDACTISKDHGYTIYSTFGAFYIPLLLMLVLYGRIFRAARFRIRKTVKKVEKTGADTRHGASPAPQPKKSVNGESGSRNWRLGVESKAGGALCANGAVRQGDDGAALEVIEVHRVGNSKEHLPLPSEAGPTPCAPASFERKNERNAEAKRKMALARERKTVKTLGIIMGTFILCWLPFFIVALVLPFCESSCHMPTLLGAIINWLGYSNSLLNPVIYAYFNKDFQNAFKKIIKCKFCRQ
Briefly: Agonist/antagonist assay, [35S]GTPgammaS binding, human serotonin 1A receptors. In kind it is biochemical. The following applies: for EC50 / Emax / IC50: Serotonin 1A; for agonist activity (in words): human serotonin 1A receptors. The procedure: For the tests, membrane specimens prepared from Chinese hamster ovary (CHO-K1) cells expressing human serotonin 1A receptors, Chinese hamster ovary (CHO) cells expressing human dopamine D2L receptors, Chinese hamster ovary (CHO) cells expressing human dopamine D2S receptors and Chinese hamster ovary (CHO) cells expressing human dopamine D3 receptors were used. In the agonist assays, for the serotonin 1A receptors, [^35S] GTPγS (final concentration 0.1 nM), a GDP solution (final concentration 3 μM), the test sample solution and a membrane specimen were added to a 20 mM Hepes-NaOH buffer (pH 7.4) containing 100 mM NaCl, 3 mM MgCl2 and 10 μg/mL saponin and allowed to react at 25° C. for 30 minutes. Further, for the dopamine (D2L, D2S and D3) receptors, [^35S] GTPγS (i.e., final concentration 0.1 nM), a GDP solution (final concentration 3 μM), the test sample solution and a membrane specimen were added to a 20 mM Hepes-NaOH buffer (pH 7.4) containing 100 mM NaCl, 10 mM MgCl2, 1 mM DTT and 1 mM EDTA and allowed to react at 30° C. for 15 minutes (in the case of D2L receptors) or for 30 minutes (in the cases of D2S and D3 receptors). Further, in the antagonist assays, except for adding to the reaction solutions 10 μM 5-carboxamide tryptamine (5-CT) (in the case of serotonin 1A receptors), 3 μM dopamine (in the cases of D2L and D2S receptors), or 0.1 μM dopamine (in the case of D3 receptors), operations were performed similar to the agonistic tests. After the end of the reaction, the reaction solution was filtered with a cell harvester, the filtered filter paper was transferred to a measurement vial, a liquid scintillator was added, and the radioactivity of the [^35S] GTPγS remaining on the filter paper was determined by a liquid scintillation counter. The human serotonin 1A receptor and human dopamine (D2L, D2S, and D3) receptor agonist/antagonist activities of the test sample were expressed as the rates of increase, when making the increase in [^35S] GTPγS bonds due to 10 μM 5-CT (in the case of serotonin 1A receptors), 3 μM dopamine (in the cases of D2L and D2S receptors), or 0.1 μM dopamine (in the case of D3 receptors) 100%. From the bond increasing rate, a regression formula was used to calculate the 50% reaction concentration (EC50) and 50% inhibition concentration (IC50).
(GTPγS resists hydrolysis and so accumulates on activated G proteins.)

Test [2] has as its system Parkinson's disease model rats. The test can be described thus: Levodopa-induced striatal dopamine release and rotational behavior, brain microdialysis in Parkinson's disease model rats. Format: in vivo, rat. The note with it: for rotational behavior of the rats: 3 and 10 mg/kg i.p. The procedure: For preparing Parkinson's disease model rats by unilateral nigrostriatal dopamine nerve destruction, Crl: CD (SD) male rats supplied by Charles River Japan (8 weeks old at start of test) were used. About 30 minutes before injection of 6-hydroxydopamine, the norepinephrine reuptake inhibitor desipramine (25 mg/kg) was intraperitoneally administered, then the rat head was fixed to a brain stereotaxic apparatus under anesthesia by intraperitoneal administration of pentobarbital (40 mg/kg). 6-hydroxydopamine (total amount 8 μg/4 μL) including ascorbic acid was dissolved in physiological saline, then was injected at two locations of the right medial forebrain bundle (at 1.8 mm posterior to the bregma, 2.0 mm right-lateral to the median line and 8.3 mm ventral to the surface of the skill and 4.5 mm to the rear from the bregma, 1.4 mm to the right from the midline, and a depth of 8.5 mm from the cranium) through a microinjection syringe at a flow rate of 1.0 μL/min over 4 minutes, then was allowed to stand for 5 minutes. To confirm the success of dopamine nerve destruction after about 3 weeks from the above surgery, the rotational behavior of the rats after subcutaneous administration of the dopamine receptor agonist apomorphine (0.05 mg/kg) was measured using a rotational behavior-measuring equipment (Rotameter 6ch System, Muromachi Kikai Co., Ltd.). Rats rotating over 100 times in the opposite direction to the injection in the one hour right after apomorphine administration were judged to have unilateral nigrastriatal dopamine nerve destruction and were used for the subsequent tests.
Furthermore, from about one week later, the rats were given repeated intraperitoneal administration of levodopa (25 mg/kg)+peripheral dopa-decarboxylase inhibitor benserazide (10 mg/kg) (hereinafter referred to as “repeated doses of levodopa”) (twice a day, from Monday to Friday) for 6 weeks.
For the brain microdialysis guide cannule insertion surgery, under anesthesia by pentobarbital (40 mg/kg intraperitoneal administration), the head of each rat was fixed on a brain stereotaxic apparatus, then a brain microdialysis guide cannule (Carnegie Medicin PC12 guide cannule) was inserted into the right striatum (0.5 mm in front of the bregma, 3.0 mm from the midline to the right, and 4.0 mm deep from the cranium) and dental cement was used to fix it to the rat skull. […] The obtained dialysate was immediately measured for dopamine concentration using a high performance liquid chromatography system with an electrochemical detector (LC-ECD). Further, every 30 minutes after levodopa administration, the number of rotations in 5 minutes to the side opposite to the 6-hydroxydopamine injection side was visually measured. […]

Where [3] appears, read: 10 μM 5-CT = 100%, read-out: Agonist assay Emax.
Where [4] appears, read: with 10 μM 5-CT, read-out: Antagonist assay Emax.

SMILES strings stand for the structures. Entries after “also recorded” stand apart in the source; their conditions may differ. Structures can show the parent of a compound that is named as a salt. Where two headings read alike, the source gives them in different places. Some results are limits rather than exact numbers.

The term EC50 denotes the concentration needed to bring the measured effect to its halfway point. A low value points to a more potent agent. The Emax is the maximal effect, on the per cent scale that the assay sets. The term IC50 denotes the concentration that gives 50% inhibition. `Cl.Cl.Fc1ccc(-c2cncc(CNC[C@H]3CCc4ccccc4O3)c2)cc1` [Sarizotan, 1-[(2R)-3,4-dihydro-2H-chromen-2-yl]-N-{[5-(4-fluorophenyl)pyridin-3-yl]methyl}methanamine dihydrochloride]: in test [1], a half-maximal response (EC50) required 2.4 nM and the “agonist activity (in words)” value is reported as “particularly strong in activity”. Besides, in test [1] (setting [3]), the maximal response (Emax) amounted to 100%. Also, in test [1] (with 10 μM 5-CT), the IC50 is over 100 nM. Moreover, in test [1] (setting [4]), the maximal effect (Emax) is 4%.
Regarding `O=C1c2ccccc2OC=C(Cl)N1CCCCN1CC=C(c2ccccn2)CC1` [SUN N4057, 3-chloro-4,5-dihydro-4-{4-[4-(2-pyridyl)-1,2,3,6-tetrahydropyridin-1-yl]butyl}-1,4-benzoxazepin-5-one.dihydrochloride-dihydrate], the EC50 in test [1] amounted to 2.41 nM. For the same compound, the values for the Emax in test [1] (setting [3]) and in test [1] (setting [4]) were 100% and 3%, respectively. Besides, the IC50 in test [1] (with 10 μM 5-CT) is over 100 nM. The “agonist activity (in words)” value in test [1] is reported as “particularly strong in activity; also recorded: powerful agonist action”. For the same compound, the “increase of the amount of striatal dopamine release due to levodopa” value in test [2] (3 and 10 mg/kg i.p. 20 minutes before levodopa 25 mg/kg, week 6 of repeated levodopa) is given as “inhibitory action”. The “peak time of the amount of dopamine release” value in test [2] (3 and 10 mg/kg i.p. before levodopa) was “delayed”. Further, the “rotational behavior of the rats” value was “increase” in test [2] (150 to 210 minutes after levodopa dosage) and “decreased” in test [2] (30 minutes after levodopa administration).
For `Cl.Cl.O=c1[nH]c2cccc(C3CCCN(Cc4cncc(-c5ccc(F)cc5)c4)C3)c2o1` (stereo not drawn) [7-(1-{[5-(4-fluorophenyl)pyridin-3-yl]methyl}piperidin-3-yl)-1,3-benzoxazol-2(3H)-one dihydrochloride], the concentration giving a half-maximal response (EC50) in test [1] came to 108 nM. Also, the Emax in test [1] (setting [3]) was determined as 100%; in test [1] (setting [4]), 14%. Also, the half-inhibitory concentration (IC50) in test [1] (with 10 μM 5-CT) was over 20000 nM.

(Values after patent publication US20100204202A1, “DRUG FOR ALLEVIATING MOTOR COMPLICATIONS OR PSYCHIATRIC SYMPTOMS OF PARKINSON'S DISEASE” (Asubio Pharma Co., Ltd., priority 2007, published 2010).)
